Laboratory results: article PMC3923730 (Journal of Translational Medicine, 2014)
Where “and” joins values, the source holds several entries; their conditions need not be identical. Equal values may be shown once.

Assays:
[1] = Pharmacokinetics in rats (plasma); type: in vivo; settings: rat plasma
Experimental: (§1) TRO40303 was administered by intravenous (i.v.) bolus to healthy rats at doses of 0.3, 1, 3 and 10 mg/kg in IL30 under isoflurane gas anaesthesia. A maximum of 0.25 mL of blood was collected into lithium heparin tubes at 5, 15 and 30 min, 1 h, 2 h, 4 h, 8 h and 24 h after drug administration (3 rats per time point). The blood samples were cooled on ice and plasma samples were prepared within 60 min of sampling by centrifugation at 1500 g at 4 °C for 10 min and stored at –20°C until analysis. For heart level measurements, TRO40303 was administrated i.v. to rats undergoing the myocardial infarction procedure at the dose of 1 mg/kg in IL30 either 10 min before CAO or 10 min before CAR. Five min after CAR, rats were anesthetised and sacrificed, hearts were isolated and washed with saline. Tissue from AAR was separated from the remainder of the left ventricle; samples were frozen and stored at –20°C until analysis. After TRO40303 plasma concentration analysis, TRO40303 plasma AUC(0-∞) (the area under the curve extrapolated from time zero to time infinity), was calculated using Kinetica™, version 4.4.1 (Thermo Electron Corporation, Philadelphia, PA 19103, USA). The results were analyzed in comparison with previous pharmacokinetic data obtained with TRO40303 formulated in HPBCD at 2.5 mg/kg.
Thawed preclinical samples were extracted with acetonitrile, centrifuged, purified on SPEC C2 cartridge (Varian) for the heart samples and analysed along with calibration standards. Analysis was carried out on an Alliance 2695 (Waters) system interfaced to an API Quattro Micro (Waters) MS detector. Calculations were carried out with Waters QuanLynx software.

[2] = TRO40303 heart level measurement in rats; type: in vivo; settings: rat, 1 mg/kg i.v. in IL30 10 min before CAO or 10 min before CAR, 5 min post reperfusion, AAR and remainder of left ventricle
Experimental: as §1, with “Tissue from AAR was separated from the remainder of the left ventricle; samples were frozen and stored at –20°C until analysis.” left out
Thawed preclinical samples were extracted with acetonitrile, centrifuged, purified on SPEC C2 cartridge (Varian) for the heart samples and analysed along with calibration standards. […]

isolated rat heart [3] = experiment: Langendorff isolated rat heart ischemia-reperfusion, hemodynamic measurements; settings: 1 μM, vs 0.03% HPBCD
Experimental: Ischemic reperfusion of Langendorff isolated rat heart was performed as previously described. Rat hearts were perfused either with TRO40303 1 μM (0.5 mg/mL stock in 30% HPBCD diluted 1000X in Krebs-Henseleit (KH) buffer (n = 29)) or vehicle (30% HPBCD diluted 1000X in KH buffer (n = 24)) during 30 min equilibration, 10 min low flow ischemia, and 60 min reperfusion following 30 min of total ischemia. During the reperfusion period, the following parameters were monitored via a water-filled latex balloon inserted into the left ventricle: left ventricular end diastolic pressure (LVEDP); left ventricular developed pressure (Pdev); its first derivative (dP/dt) and heart rate. Coronary flow was measured by collecting the coronary perfusate over 1 min. The rate-pressure product (RPP) was calculated as the product of Pdev and heart rate. Some of the hearts from this main experiment were used to assess ascorbate, reactive oxygen species (ROS) and lipid peroxidation as described below.

isolated rat heart [4] = experiment: Free radical (ESR) and lipid peroxidation (MDA-TBA) measurements in isolated rat heart; settings: 1 μM
Experimental: To evaluate the effect of 1 μM TRO40303 on ischemia-reperfusion-induced ascorbate release and tissue depletion, effluents from control and treated hearts undergoing the perfusion protocol described above (n = 6/group) were collected for 15 s, 1 min following onset of reflow, and hearts were frozen in liquid nitrogen at the end of the reperfusion period. Ascorbate content in effluents and tissue homogenates was then assessed by quantifying the ascorbyl free radical (AFR)-dimethyl sulfoxide (DMSO) electron spin resonance (ESR) doublet as previously described, DMSO being used to stabilize the ascorbate free radical.
To investigate whether TRO40303 could interfere with ischemia-reperfusion-triggered ROS production, hearts (n = 6) undergoing the perfusion protocol described above received the spin trap nitrone DMPO (25 mM) during the first 5 min of reperfusion. A 15-s collection of the effluents was performed pre-ischemically on three additional hearts from both groups, and 3 min after onset of reflow for the 6 ischemic/reperfused hearts. Samples were immediately stored in liquid nitrogen. The free radical content of DMPO-supplemented from TRO40303-treated and control effluents was determined by ESR in glass capillaries. The ESR signal was acquired 1.5 min after thawing of the sample using the same parameters as for ascorbate except: modulation amplitude 0.0313 mT, receiver gain 5 × 10^4 and sweep rate for each scan 0.167 mT/s.
Lipid peroxidation in heart tissue at the end of reperfusion was evaluated using the malondialdehyde-thiobarbituric acid assay (MDA-TBA) (n = 8/group) as previously described.

Domestic Yorkshire pigs = experiment: Porcine liposome-induced cardio-pulmonary distress model; type: in vivo; settings: pig, 10 mg/kg i.v. liposomal formulation
Experimental: Domestic Yorkshire pigs (12-14 weeks, ~25 kg) received multiple i.v. injections of the test material via the external jugular vein at 10 mL/min as follows: saline as a negative control, the liposomal formulation of TRO40303 at 10 mg/kg and a bolus of Doxil® at 0.01 mg/kg as a positive control. Doxil® is a marketed liposomal formulation of doxorubicin administered intravenously that can provoke acute infusion-related reactions.
Hemodynamic changes were monitored continuously for at least 30 min after the end of each test material infusion. Systemic arterial blood pressure (SAP) and pulmonary arterial blood pressure (PAP) changes were evaluated.

[5] = Solubility in formulation vehicle; type: physicochemical; settings: in Intralipid® 30 (IL30), concentrations up to
[6] = test system: myocardial infarction model in rats; parameters: method as in PMID 20215409; settings: rat myocardial infarction model, 2.5 mg/kg formulated in HPBCD; cited from earlier work

CC(C)CCC[C@@H](C)[C@H]1CC[C@H]2[C@@H]3CC/C(=N\O)[C@](C)(CCCO)[C@H]3CC[C@]12C [TRO40303, 3,5-seco-4-nor-cholestan-5-one oxime-3-ol]
AUC(0-∞) ([1]; 3 mg/kg i.v. in IL30, satellite animals): 14000 ng·h/mL
C5min ([1]; 3 mg/kg i.v. in IL30, satellite animals, 3 mg/kg): 57.9 μM and 23.5 μg/mL
AUC(0-∞) ([1]; 10 mg/kg i.v. in IL30, satellite animals): 44800 ng·h/mL
C5min ([1]; 10 mg/kg i.v. in IL30, satellite animals, 10 mg/kg): 130 μM and 52.8 μg/mL
concentration of TRO40303 in heart tissue [2]: ~ 1 μg/g
recovery of LVEDP at reperfusion (isolated rat heart [3]; 60 min reperfusion after 30 min total ischemia): greatly and significantly improved
contractility (dP/dt) (isolated rat heart [3]; reperfusion): improved
developed pressure (Pdev) (isolated rat heart [3]; reperfusion): improved
rate-pressure product (RPP) (isolated rat heart [3]; reperfusion): significantly higher
recovery of coronary flow (isolated rat heart [3]; reperfusion): better recovery
decrease of DMPO-OH ESR signal intensity in coronary effluents (isolated rat heart [4]; 25 mM DMPO at reperfusion, 3 min after onset of reflow, p < 0.05, n = 6): 69%
AFR-DMSO release in the coronary effluents versus untreated hearts (isolated rat heart [4]; early reperfusion (1st min), p < 0.001, n = 6): –57%
tissue AFR-DMSO versus untreated hearts (isolated rat heart [4]; end of reflow, p < 0.05, n = 6): +24%
MDA-TBA formation compared to vehicle-perfused hearts (isolated rat heart [4]; heart tissue at end of reperfusion, p < 0.01, n = 8): –65%
change in systemic arterial blood pressure (SAP) (Domestic Yorkshire pigs): not changed
solubility [5]: ~ 6 mg/mL
reduction of infarct size [6]: 38%
